# From patent US6355658B1, “Coumarin derivatives, methods of preparation and application as medicines” (Centre National de la Recherche Scientifique, priority 1997, dated 2002)
# Like-named read-outs stand apart in the source and are kept apart here.
# Experiments:
# [1] = biological target: T1, bovine α-chymotrypsin (Bos taurus, UniProt P00766); test: Inactivation kinetics of bovine α-chymotrypsin (chromogenic substrate Suc-Ala2-Pro-Phe-pNA); format: biochemical; conditions: 25° C., pH 7.5, N.I. = non-inactivator; for kinact/KI: read-out: Ki/KI or kobs/[I], α-CT
# T1 construct: bovine α-chymotrypsin
# Procedure: (§1) The inactivating or inhibitory properties of the coumarin derivatives were tested with respect to a certain number of enzymes: human leukocyte elastase, bovine α-chymotrypsin, human thrombin and bovine trypsin. The kinetic measurements were taken at 25° C. in the following buffers: 0.1 M Hepes, 0.5 M NaCl, 0.01% Tween 80, pH 8.0 (human leukocyte elastase); 0.025 M NaH2PO4, 0.05 M KCl, pH 7.5 (α-chymotrypsin); 0.01 M Tris, 0.01 M Hepes, 0.1 M NaCl, 0.1% PEG-6000, pH 7.5 (human thrombin); 0.1 M Tris, 0.01 M CaCl2, pH 7.5 (bovine trypsin). The chromogenic substrates used to determine the activity of the enzymes are: MeOSuc-Ala2-Pro-Val-pNA (human leukocyte elastase); Suc-Ala2-Pro-Phe-pNA (α-chymotrypsin); H-D-Phe-Pip-Arg-pNA (human thrombin); N-benzoyl-Arg-pNA (bovine trypsin) (pNA: para-nitroaniline).
# (§2) The interaction of a suicide substrate with a serine protease corresponds to the minimum reaction scheme described in equation 1 in which E represents the enzyme, I represents the inhibitor, E-I represents the acyl-enzyme and E-I′ represents the inactivated enzyme [Silverman R. B., 1988, “Mechanism-based enzyme inactivation: chemistry and enzymology”, volume 1 CRC Press, Boca Raton, Fla.]: [drawing 76]
# (§3) When k4 is small compared to k3, equation 1 can be simplified (equation 2, [Daniels et al., 1983, J. Biol. Chem., 258: 15046-15053]): [drawing 77]
# (§4) Considering the first instants of the reaction, the system reduces to a simplified equation of the form of equation 2.
# (§5) The kinetic constants characterizing the inactivation of the enzymes with the coumarin derivatives were determined using either the conventional sampling method (or batchwise method) or a method placing the inhibitor and the substrate in competition (or continuous method); these methods are described by Pochet et al. [Pochet et al., 1996, J. Med. Chem., 39: 2579-2585].
# (§6) The inactivation of serine proteaaes with the coumarin derivatives is thus characterized by the following constants (see Eq. 2):
# (§7) KI: apparent dissociation constant of an enzyme-inhibitor complex located upstream of ki
# (§8) ki: first-order rate constant for inactivation at infinite inhibitor concentration
# (§9) ki/KI: index of the overall inactivating efficacy of the inhibitor.
# [2] = biological target: T2, human leukocyte elastase (Homo sapiens, UniProt P08246); test: Inactivation kinetics of human leukocyte elastase (chromogenic substrate MeOSuc-Ala2-Pro-Val-pNA); format: biochemical; conditions: 25° C., pH 8.0
# T2 sequence (P08246 30-247 limits assumed): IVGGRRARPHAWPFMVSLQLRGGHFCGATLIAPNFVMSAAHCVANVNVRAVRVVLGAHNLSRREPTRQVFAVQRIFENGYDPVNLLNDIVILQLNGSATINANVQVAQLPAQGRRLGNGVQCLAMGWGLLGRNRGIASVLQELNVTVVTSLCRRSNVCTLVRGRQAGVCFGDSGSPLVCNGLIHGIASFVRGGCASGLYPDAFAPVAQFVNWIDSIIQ
# Procedure: as §1, §2, §3, §4, §5, §6, §7, §8, §9
# [3] = biological target: T3, human thrombin (Homo sapiens, UniProt P00734); test: Inactivation kinetics of human thrombin (chromogenic substrate H-D-Phe-Pip-Arg-pNA); format: biochemical; conditions: 25° C., pH 7.5, N.I. = non-inactivator
# T3 construct: human thrombin
# Procedure: as §1, §2, §3, §4, §5, §6, §7, §8, §9
# [4] = biological target: T4, bovine trypsin (Bos taurus, UniProt P00760); test: Inactivation kinetics of bovine trypsin (chromogenic substrate N-benzoyl-Arg-pNA); format: biochemical; conditions: TABLE 3; 25° C., pH 7.5; N.I. = non-inactivator
# T4 sequence (P00760 24-246): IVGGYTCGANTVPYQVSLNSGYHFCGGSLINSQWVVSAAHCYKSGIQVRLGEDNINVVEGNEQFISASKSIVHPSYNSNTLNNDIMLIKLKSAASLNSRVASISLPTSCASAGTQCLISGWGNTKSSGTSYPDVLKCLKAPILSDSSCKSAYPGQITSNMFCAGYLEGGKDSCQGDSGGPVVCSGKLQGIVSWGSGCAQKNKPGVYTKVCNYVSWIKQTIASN
# Procedure: as §1, §2, §3, §4, §5, §6, §7, §8, §9
# [5] = TABLE 5, phenyl esters, without 6-chloromethyl: inactivation phase of transient inactivation
# [6] = TABLE 5, phenyl esters, inactivation phase, N.I. = non-inactivator, read-out: Ki/KI or kobs/[I], HLE
# [7] = TABLE 5, phenyl esters, inactivation phase
# [8] = TABLE 3, no chloromethyl in position 6
# [9] = TABLE 3, no chloromethyl in position 6, inactivation phase of transient inactivation, read-out: Ki/KI or kobs/[I], LHE
SMILES,"kinact/KI [1, 5]","kinact/KI [2, 6]","Ki/KI or kobs/[I], Thrombin [3, 7]","kinact/KI [2, 9]","Ki/KI or kobs/[I], α-CT [1, 8]",also measured
"O=C(Oc1cccc(C(F)(F)F)c1)c1cc2cc(CCl)ccc2oc1=O [Ic″2, 3-trifluoromethylphenyl 6-chloromethyl-2-oxo-2H-1-benzopyran-3-carboxylate]",< 500 M⁻¹ s⁻¹,330 M⁻¹ s⁻¹,–,–,–,melting point: 162 to 163 °C
"COc1cc(Cl)cc(OC(=O)c2cc3cc(CCl)ccc3oc2=O)c1 [Ic″7, 3-chloro-5-methoxyphenyl 6-chloromethyl-2-oxo-2H-1-benzopyran-3-carboxylate]",1200 M⁻¹ s⁻¹,350 M⁻¹ s⁻¹,–,–,–,–
"CC(=O)OCc1ccc2oc(=O)c(C(=O)Oc3cccc(Cl)c3)cc2c1 [Id2, 3-chlorophenyl 6-acetoxymethyl-2-oxo-2H-1-benzopyran-3-carboxylate]",20000 M⁻¹ s⁻¹,1440 M⁻¹ s⁻¹,–,–,–,"kinact/KI ([3]; TABLE 5, phenyl esters, inactivation phase, read-out: Ki/KI or kobs/[I], Thrombin): 580 M⁻¹ s⁻¹"
"CC(C)(C)C(=O)OCc1ccc2oc(=O)c(C(=O)Oc3cncc(Cl)c3)cc2c1 [Id8, 5-chloro-3-pyridyl 6-trimethylacetoxymethyl-2-oxo-2H-1-benzopyran-3-carboxylate]",–,–,–,95500 M⁻¹ s⁻¹,N.I.^a N.I. N.I. N.I. N.I. N.I. N.I. N.I.,"Ki/KI or kobs/[I], Thrombin ([3]; TABLE 3): N.I. N.I. N.I. N.I. N.I. N.I. N.I. N.I. —; Ki/KI or kobs/[I], Trypsin [4]: N.I. N.I. N.I. N.I. N.I. N.I. N.I. — —"
"Cl.NCc1ccc2oc(=O)c(C(=O)Oc3cncc(Cl)c3)cc2c1 [If3, 5-chloro-3-pyridyl 6-aminomethyl-2-oxo-2H-1-benzopyran-3-carboxylate hydrochloride]",–,–,–,9100 M⁻¹ s⁻¹,N.I.^a N.I. N.I. N.I. N.I. N.I. N.I. N.I.,"Ki/KI or kobs/[I], Thrombin ([3]; TABLE 3): N.I. N.I. N.I. N.I. N.I. N.I. N.I. N.I. —; Ki/KI or kobs/[I], Thrombin ([3]; second table headed TABLE 3): N.I. N.I. N.I. N.I. N.I. N.I. N.I. N.I. —; Ki/KI or kobs/[I], α-CT ([1]; second table headed TABLE 3): N.I.^a N.I. N.I. N.I. N.I. N.I. N.I. N.I.; Ki/KI or kobs/[I], LHE ([2]; TABLE 3, inactivation phase): 9100 M⁻¹ s⁻¹; melting point: 230 °C (dec.)"
"O=C(Oc1cncc(Cl)c1)c1cc2cc(Br)ccc2oc1=O [Ig1, 5-chloro-3-pyridyl 6-bromo-2-oxo-2H-1-benzopyran-3-carboxylate]",–,–,–,58000 M⁻¹ s⁻¹,# N.I.,–

# More lines, main results first:
"kinact/KI [1, 5]","kinact/KI [2, 6]","Ki/KI or kobs/[I], Thrombin [3, 7]","kinact/KI [2, 9]",SMILES,"Ki/KI or kobs/[I], α-CT [1, 8]",also measured
1200 M⁻¹ s⁻¹,< 200 M⁻¹ s⁻¹,— — — — N.I. N.I.,–,"O=C(Oc1cccc(Cl)c1Cl)c1cc2cc(CCl)ccc2oc1=O [Ic″3, 2,3-dichlorophenyl 6-chloromethyl-2-oxo-2H-1-benzopyran-3-carboxylate]",–,–
–,< 200 M⁻¹ s⁻¹,— — — — N.I. N.I.,–,"O=C(Oc1c(Cl)cccc1Cl)c1cc2cc(CCl)ccc2oc1=O [Ic″5, 2,6-dichlorophenyl 6-chloromethyl-2-oxo-2H-1-benzopyran-3-carboxylate]",–,"Ki/KI or kobs/[I], α-CT [1, 5]: N.I."
110000 M⁻¹ s⁻¹,4000 M⁻¹ s⁻¹,N.I.,–,"O=C(Oc1cc(Cl)cc(Cl)c1)c1cc2cc(CCl)ccc2oc1=O [Ic″6, 3,5-dichlorophenyl 6-chloromethyl-2-oxo-2H-1-benzopyran-3-carboxylate]",–,–
